Laboratory results taken from patent US11364275B2, “Linear lipopeptide paenipeptins and methods of using the same” (priority 2017, dated 2022).
Values after ≈ are worked out from the molar mass of the structure shown. Where two headings read alike, the source gives them in different places. Where a SMILES comes first, the peptide text is derived from it. [ ]: non-standard residue; d: D form. The star is where a group is joined. Dab = NCC[C@H](N)C(=O)O; Cbz = O=C(OCc1ccccc1)*

Assays:
[1] = tested on: Acinetobacter baumannii ATCC 19606; assay type: cell-based; settings: A. baumannii ATCC 19606; TSB
Protocol: (§4) The minimum inhibitory concentration (MIC) of paenipeptin analogues was determined using the broth microdilution method (Wirker, M. A. Methods for Dilution Antimicrobial Susceptibility Tests for Bacteria that Grow Aerobically: Approved Standard M07-A8; Clinical and Laboratory Standards Institute, Wayne, Pa., 2009). Seven reference strains (Acinetobacter baumannii ATCC 19606, Escherichia coli ATCC 25922, Klebsiella pneumoniae ATCC 13883, Pseudomonas aeruginosa ATCC 27853, Enterococcus faecium ATCC 19434, Staphylococcus aureus ATCC 29213 and methicillin-resistant S. aureus ATCC 43300) were subjected to MIC testing.
(§5) Paenipeptin analogues were two-fold diluted in tryptic soy broth (TSB; Becton Dickinson) and mixed with an equal volume of bacterial suspensions in TSB containing approximately 1.5×10^5 colony-forming units (CFU)/mL in a clear UV-sterilized 96-well microtiter plate (NBS, Corning Inc., Corning, N.Y.). […] The microtiter plate was incubated at 37° C. for 18-20 h.

[2] = tested on: Escherichia coli ATCC 25922; assay type: cell-based; settings: E. coli ATCC 25922; TSB
Protocol: as §4, §5

[3] = tested on: Klebsiella pneumoniae ATCC 13883; assay type: cell-based; settings: K. pneumoniae ATCC 13883; TSB
[4] = tested on: Pseudomonas aeruginosa ATCC 27853; assay type: cell-based; settings: P. aeruginosa ATCC 27853; TSB
Protocol: as §4, §5

[5] = tested on: Enterococcus faecium ATCC 19434; assay type: cell-based; settings: E. faecium ATCC 19434; TSB
[6] = tested on: Staphylococcus aureus ATCC 29213; assay type: cell-based; settings: S. aureus ATCC 29213; TSB
Protocol: as §4, §5

[7] = Cytotoxicity, MTT assay; assay type: cell-based, human; settings: human, HEK 293 cells, HEK 293, 24 h, read-out: Viability
Protocol: (§1) Cytotoxicity of paenipeptin analogues was determined against a human kidney cell line (HEK 293) using MTT assays (Huang E, Yousef AE. 2014. Paenibacterin, a novel broad-spectrum lipopeptide antibiotic, neutralises endotoxins and promotes survival in a murine model of Pseudomonas aeruginosa-induced sepsis. Int J Antimicrob Agents 44: 74-77). Cell viability was measured at 24 h following the addition of lipopeptides at concentrations between 30-105 μg/ml. The viability of human embryonic kidney cells (HEK 293) decreased with the increase of paenipeptin concentration. The viability of HEK 293 cells in the presence of paenipeptin analogue 1 and 15 at 105 μg/ml was 61% and 67%, respectively (Table 10). The relatively low cytotoxicity of paenipeptin analogue 1 and 15 was correlated with their low hemolytic activity against red blood cells.

[8] = tested on: human kidney cell line (HEK 293); assay: Cytotoxicity, MTT assay; assay type: cell-based; settings: HEK 293; 105 μg/ml; 24 h
Protocol: as §1

[9] = tested on: Acinetobacter baumannii ATCC 19606; assay: MIC of antibiotics with or without paenipeptin analogues (potentiation); assay type: cell-based; settings: A. baumannii ATCC 19606
From the text: (§2) Gram-negative bacteria, including Acinetobacter and Klebsiella, are intrinsically resistant to the hydrophobic antibiotic rifampicin.

[10] = tested on: Klebsiella pneumoniae ATCC 13883; assay: as above; assay type: cell-based; settings: K. pneumoniae ATCC 13883
From the text: as §2

[11] = tested on: A. baumannii FDA-CDC AR 0063; assay: Time-kill kinetics in 95% human serum, alone and combined; assay type: cell-based, Acinetobacter baumannii; settings: A. baumannii AR 0063, 24 h
Protocol: (§3) Bacterial viable counts were determined at 0, 2, 4, 6, and 24 h after antimicrobial treatment. Bacterial surviving counts at 24 h endpoints were subjected to analysis of variance (ANOVA) followed by Tukey's honest significant difference (HSD) tests using SPSS Statistics (version 24; SPSS, Inc., Chicago, Ill., USA).
To further test the therapeutic potential of paenipeptin analogues, the time-kill kinetics assays of paenipeptins alone or in combination with other antibiotics were performed in 95% human serum in vitro. Without antimicrobial treatment, the population of A. baumannii FDA-CDC AR 0063 increased from 5.8 log to 9.3 log within 24 h. […] (FIG. 7A).

[12] = tested on: K. pneumoniae FDA-CDC AR0097; assay: as above; assay type: cell-based, Klebsiella pneumoniae
Protocol: as §3
To further test the therapeutic potential of paenipeptin analogues, the time-kill kinetics assays of paenipeptins alone or in combination with other antibiotics were performed in 95% human serum in vitro.

[13] = tested on: A. baumannii FDA-CDC AR 0037; settings: A. baumannii AR 0037
[14] = tested on: A. baumannii FDA-CDC AR 0052; settings: A. baumannii AR 0052
[15] = tested on: A. baumannii FDA-CDC AR 0070; settings: A. baumannii AR 0070
[16] = tested on: A. baumannii FDA-CDC AR 0083; settings: A. baumannii AR 0083
[17] = tested on: K. pneumoniae FDA-CDC AR 0034; settings: K. pneumoniae AR 0034
[18] = tested on: K. pneumoniae FDA-CDC AR 0044; settings: K. pneumoniae AR 0044
[19] = tested on: K. pneumoniae FDA-CDC AR 0068; settings: K. pneumoniae AR 0068
[20] = tested on: K. pneumoniae FDA-CDC AR 0080; settings: K. pneumoniae AR 0080
[21] = tested on: K. pneumoniae FDA-CDC AR 0097; settings: K. pneumoniae AR 0097

CC[C@H](C)[C@H](NC(=O)[C@H](CCN)NC(=O)OCc1ccccc1)C(=O)N[C@@H](CCN)C(=O)N[C@H](Cc1ccccc1)C(=O)N[C@@H](CC(C)C)C(=O)N[C@@H](CCN)C(=O)N[C@@H](C(=O)N[C@@H](CC(C)C)C(=O)N[C@@H](CO)C(N)=O)C(C)C [Analogue 15] (Cbz-[Dab]I[Dab][dF]L[Dab][dV]LS-NH2)
MIC [1]: 16 µg/mL (≈ 14.2 µM) | MIC [2]: 8 to 16 µg/mL | MIC [3]: >32 µg/mL | MIC [4]: 16 µg/mL (≈ 14.2 µM) | MIC [5]: >32 µg/mL | MIC [6]: >32 µg/mL | viability at 24 h, 30 µg/mL ([7]; 30 μg/ml): 91.4 ± 4.09% | viability at 24 h, 45 µg/mL ([7]; 45 μg/ml): 84.3 ± 8.12% | viability at 24 h, 60 µg/mL ([7]; 60 μg/ml): 82 ± 4.54% | viability at 24 h, 75 µg/mL ([7]; 75 μg/ml): 73.3 ± 5.37% | viability at 24 h, 90 µg/mL ([7]; 90 μg/ml): 67.1 ± 10% | viability at 24 h, 105 µg/mL ([7]; 105 μg/ml): 67.5 ± 9.66% | Viability [8]: 67% | MIC of rifampicin at 2 μg/mL of paenipeptin analogue [9]: 0.0019-0.0039 μg/ml | MIC of rifampicin at 2 μg/mL of paenipeptin analogue [10]: 0.0039 μg/ml | MIC of rifampicin at 4 μg/mL of paenipeptin analogue [10]: 0.00195-0.0039 μg/ml | Sensitization factor (rifampicin) ([10]; MIC without / with 4 μg/mL paenipeptin): 4,096-8,192 | decrease of bacterial population, analogue 4 μg/ml in combination with rifampicin 4 μg/ml [11]: 2.7 log | log reduction, analogue 4 μg/ml in combination with clarithromycin 4 μg/ml [11]: 0.7 log | log reduction, analogue 4 μg/ml in combination with rifampicin 4 μg/ml ([12]; 24 h): 4.6 log | log inactivation, single agent at 4 μg/ml ([12]; within 24 h): didn't show bactericidal activity | MIC of rifampicin at the presence of PMBN or paenipeptin analogue at 4 μg/ml [13]: ≤0.0019 μg/ml | MIC alone ([13]; 10% FBS): 4 µg/mL (≈ 3.56 µM) | MIC alone ([13]; No FBS): 8 µg/mL (≈ 7.11 µM) | increase in antibiotic activity of clarithromycin ([13]; analogue at 4 μg/mL): 8192 fold | MIC alone ([14]; 10% FBS): <0.5 µg/mL | MIC alone ([14]; No FBS): ≤0.5 µg/mL | MIC alone ([15]; 10% FBS): 0.5 to 1 µg/mL | MIC alone ([15]; No FBS): ≤0.5 µg/mL | MIC of clarithromycin at the presence of PMBN or paenipeptin analogue at 4 μg/ml [16]: 1-4 μg/ml | MIC of rifampicin at the presence of PMBN or paenipeptin analogue at 4 μg/ml [16]: 0.0313-0.0625 μg/ml | MIC alone ([16]; 10% FBS): 4 to 8 µg/mL | MIC alone ([16]; No FBS): 8 to 16 µg/mL | MIC of clarithromycin at the presence of PMBN or paenipeptin analogue at 4 μg/ml [17]: 0.125-0.5 μg/ml | MIC of rifampicin at the presence of PMBN or paenipeptin analogue at 4 μg/ml [17]: ≤0.0019 μg/ml | MIC alone ([17]; 10% FBS): >32 µg/mL | MIC alone ([17]; No FBS): ≥32 µg/mL | MIC of clarithromycin at the presence of PMBN or paenipeptin analogue at 4 μg/ml [18]: 0.0078-0.0156 μg/ml | MIC of rifampicin at the presence of PMBN or paenipeptin analogue at 4 μg/ml [18]: ≤0.0019 μg/ml | MIC alone ([18]; 10% FBS): 16 to 32 µg/mL | MIC alone ([18]; No FBS): 32 µg/mL (≈ 28.5 µM) | MIC of clarithromycin at the presence of PMBN or paenipeptin analogue at 4 μg/ml [19]: >32 μg/ml | MIC of rifampicin at the presence of PMBN or paenipeptin analogue at 4 μg/ml [19]: 0.0039-0.0078 μg/ml | MIC alone ([19]; 10% FBS): >32 µg/mL | MIC alone ([19]; No FBS): >32 µg/mL | MIC of clarithromycin at the presence of PMBN or paenipeptin analogue at 4 μg/ml [20]: 0.0156 μg/ml | MIC of rifampicin at the presence of PMBN or paenipeptin analogue at 4 μg/ml [20]: 0.0313 μg/ml | MIC alone ([20]; 10% FBS): 32 µg/mL (≈ 28.5 µM) | MIC alone ([20]; No FBS): 32 µg/mL (≈ 28.5 µM) | MIC of clarithromycin at the presence of PMBN or paenipeptin analogue at 4 μg/ml [21]: 0.0078-0.0156 μg/ml | MIC of rifampicin at the presence of PMBN or paenipeptin analogue at 4 μg/ml [21]: 0.0019-0.0039 μg/ml | MIC alone ([21]; 10% FBS): 16 to 32 µg/mL | MIC alone ([21]; No FBS): >32 µg/mL
